Series [1] can be described thus: Cytotoxicity against Homo sapiens (human) HL60-P58 at 100 ug after 72 hr by MTT assay. Type of series: functional.
Series [2] deals with Staphylococcus aureus. As to the kind of experiment: Antimicrobial activity against Staphylococcus aureus MTCC 96 at 100 ug after 24 hr by agar disk diffusion method. Type of series: functional. As to conditions: MTCC 96, 24 h, read-out: DIZ.
In series [3] the test system is Proteus vulgaris. As to the kind of experiment: Antimicrobial activity against Proteus vulgaris MTCC 1751 at 100 ug after 24 hr by agar disk diffusion method. Type of series: functional. The settings on record: MTCC 1751, 24 h, read-out: DIZ.
Series [4] concerns Radical scavenging activity. Briefly: Antioxidant activity assessed as DPPH radical scavenging activity at 100 ug after 20 min by UV-Visible spectrophotometry. Type of series: functional.
Series [5] is described as follows: Antioxidant activity assessed as ferric reducing activity at 100 ug after 20 min by UV-Visible spectrophotometry. More on the design: scale not given: the % may be the effect or the level left.
A short description of series [6]: Cytotoxicity against Homo sapiens (human) PN-5C-12 at 100 ug after 72 hr by MTT assay. The settings on record: in vitro.
In series [7] the test system is Candida albicans. As to the kind of experiment: Antimicrobial activity against Candida albicans MTCC 3017 at 100 ug after 48 hr by agar disk diffusion method. The settings on record: MTCC 3017, 48 h, read-out: DIZ. The series is classed as functional.
Series [8] can be described thus: Cytotoxicity against Homo sapiens (human) Hep-3BPN7 at 100 ug after 72 hr by MTT assay. Type of series: functional.
Series [9] is described as follows: Antioxidant activity assessed as hydroxyl radical scavenging activity at 100 ug after 5 min by UV-Visible spectrophotometry. The series is classed as functional.
For series [10], the system named is Escherichia coli. Briefly: Antimicrobial activity against Escherichia coli DH5[alpha] at 100 ug after 24 hr by agar disk diffusion method. The series is classed as functional. As to conditions: read-out: DIZ.
Series [11] is described as follows: Cytotoxicity against Homo sapiens (human) HeLa-B75 at 100 ug after 72 hr by MTT assay. The series is classed as functional.

Take `COc1cc(OC)c(C2=CCN(C)CC2)c(OC)c1/C=C/C(=O)c1ccccc1`: the Activity stood at 63.52% in series [1]; 27.9% in series [4]; 58.4% in series [5]; 61.79% in [6]; 78.06% in series [8]; 41.4% in series [9]. Further, in series [11], the Activity worked out at 84.15%. Further, the zone of inhibition at 100 µg/disc was found to be 5 mm in [2], 2.5 mm in series [3], 3.5 mm in series [7] and 5.5 mm in series [10].
Take `COc1ccc(C(=O)/C=C/c2c(OC)cc(OC)c(C3=CCN(C)CC3)c2OC)c(OC)c1`: the Activity worked out at 78.48% in series [1]; 60.6% in series [4]; 53.1% in [5]; 47.82% in series [6]; 77% in series [8]; 59% in series [9]. The molecule further came in with an Activity in [11] of 83.4%. In addition, the zone of inhibition at 100 µg/disc in series [2] is 2.5 mm; in series [3], 3.5 mm; in [10], 3.15 mm.
For `COc1cc(OC)c(C(=O)/C=C/c2c(OC)cc(OC)c(C3=CCN(C)CC3)c2OC)c(OC)c1`, the Activity in series [1] was 65.04%; in series [4] it was 56.1%; in [5], 58.8%; in series [6] it was 59.81%; in series [8], 70.53%; in series [9], 46.6%. Moreover, the Activity in series [11] is on record as 78.73%. Further, the zone of inhibition at 100 µg/disc in [2], in series [3] and in series [10] was 3.5 mm in each case.
Consider `COc1cc(OC)c(C2=CCN(C)CC2)c(OC)c1/C=C/C(=O)c1cccs1`, for which the Activity turned out to be 54.28% in series [1]; 22.7% in series [4]; 59.6% in [5]; 67.19% in series [6]; 79.8% in [8]; 36.5% in series [9]. The same molecule had an Activity in series [11] of 84.91%. Further, the zone of inhibition at 100 µg/disc in series [2] was found to be 2.5 mm; in series [3], 6.5 mm; in series [7], 1.5 mm; in series [10] it was 1.1 mm.
Regarding `COc1cc(OC)c(C2=CCN(C)CC2)c(OC)c1/C=C/C(=O)c1ccc(N)cc1`, the Activity in series [1] turned out to be 61.17%; in [4], 89.6%; in series [5] it was 48.3%; in [6], 49.67%; in [8], 75.06%; in series [9] it was 54.1%. The molecule also had an Activity in series [11] of 79.28%. Further, the zone of inhibition at 100 µg/disc in series [2] turned out to be 1.5 mm; in [3], 5 mm; in series [7], 2.9 mm; in [10] it was 6.5 mm.
With `COc1ccccc1C(=O)/C=C/c1c(OC)cc(OC)c(C2=CCN(C)CC2)c1OC`, the Activity in series [1] worked out at 68.4%; in [4] it was 60%; in [5] it was 60.8%; in [6] it was 46.77%; in [8] it was 71.33%; in series [9] it was 59.8%. In addition, the Activity in series [11] amounted to 81.13%. The zone of inhibition at 100 µg/disc in series [2] is 2.5 mm; in [3] it was 3 mm; in series [10], 3.5 mm.
With `COc1cc(OC)c(C2=CCN(C)CC2)c(OC)c1/C=C/C(=O)c1ccc(Br)cc1`, the Activity in series [1] amounted to 62.68%; in [4], 23.3%; in series [5], 50.3%; in [6] it was 66.4%; in series [8], 78.93%; in series [9], 44.4%. In addition, the Activity in series [11] turned out to be 84.84%. The zone of inhibition at 100 µg/disc in series [2] turned out to be 0.5 mm; in series [7], 0.5 mm; in [10] it was 2 mm.
For the molecule `COc1cc(OC)c(C2=CCN(C)CC2)c(OC)c1/C=C/C(=O)c1ccc([N+](=O)[O-])cc1`, the Activity in series [1] came to 65.88%; in [4] it was 25%; in series [5], 46.3%; in [6] it was 70.09%; in series [8] it was 80.13%; in series [9], 51.5%. In series [11], this molecule returned an Activity of 83.67%. Besides, the zone of inhibition at 100 µg/disc in [2] was found to be 5 mm; in series [3], 4 mm; in series [7] it was 2 mm; in [10], 2 mm.
In the case of `COc1cc(OC)c(C2=CCN(C)CC2)c(OC)c1/C=C/C(=O)c1ccc(F)cc1`, the Activity came out at 62.18% in series [1]; 22.9% in series [4]; 48.3% in series [5]; 69.43% in [6]; 79.86% in series [8]; 38.7% in series [9]. Further, the Activity in series [11] turned out to be 85.04%. In addition, the zone of inhibition at 100 µg/disc in series [2] worked out at 2 mm; in series [3], 7.5 mm; in series [7], 3.5 mm; in series [10], 4.5 mm.
Turning to `COc1cc(OC)c(C2=CCN(C)CC2)c(OC)c1/C=C/C(=O)c1ccc(F)c(F)c1`, the Activity turned out to be 70.5% in series [1]; 58.8% in series [4]; 43.9% in [5]; 65.48% in [6]; 76.93% in series [8]; 52.2% in [9]. Moreover, in [11], the Activity was determined as 82.85%. Besides, the zone of inhibition at 100 µg/disc in [2] was 2.5 mm; in series [3] it was 4 mm; in series [7], 1.1 mm; in series [10], 2 mm.
As to `COc1cc(OC)c(C2=CCN(C)CC2)c(OC)c1/C=C/C(=O)c1ccc(C)cc1`, the Activity in series [1] turned out to be 69.49%; in [4], 58.5%; in [5] it was 68.1%; in [6], 44.26%; in series [8], 72.53%; in series [9], 59.8%. For the same molecule, the Activity in series [11] came out at 82.23%. Besides, the zone of inhibition at 100 µg/disc in series [2] was found to be 5 mm; in series [3], 10.2 mm; in series [7] it was 0.1 mm; in series [10], 2.5 mm.
For `COc1ccc(OC)c(C(=O)/C=C/c2c(OC)cc(OC)c(C3=CCN(C)CC3)c2OC)c1`, the Activity came to 66.3% in series [1]; 57.7% in [4]; 66.5% in series [5]; 41.1% in [6]; 73.4% in [8]; 54.9% in [9]. The same molecule displayed an Activity in [11] of 82.09%. In addition, the results for the zone of inhibition at 100 µg/disc in series [2], in series [3] and in series [10] were 5 mm, 5 mm and 2.5 mm, respectively.
For `COc1cc(OC)c(C2=CCN(C)CC2)c(OC)c1/C=C/C(=O)c1ccc[nH]1`, the Activity in series [1] is 66.55%; in series [4] it was 68.7%; in series [5], 61.2%; in [6], 57.57%; in series [8] it was 80.13%; in [9], 63.1%. In series [11], this molecule showed an Activity of 77.77%. The zone of inhibition at 100 µg/disc in series [2] is 1.1 mm; in [3] it was 3 mm; in series [7], 1.5 mm; in series [10], 6.25 mm.
As to `COc1cc(O)c(C(=O)/C=C/c2c(OC)cc(OC)c(C3=CCN(C)CC3)c2OC)c(OC)c1`, the Activity in series [1] worked out at 64.2%; in [4], 57.3%; in series [5], 69.3%; in [6] it was 44.13%; in series [8] it was 71.4%; in series [9], 51.1%. Further, the Activity in series [11] is 79.69%. For the same molecule, the zone of inhibition at 100 µg/disc in [2] came out at 1.5 mm; in series [3], 9.5 mm; in series [10] it was 2 mm.
`COc1cc(OC)c(C2=CCN(C)CC2)c(OC)c1/C=C/C(=O)c1ccc(Cl)cc1`: the Activity worked out at 65.04% in series [1]; 20.4% in series [4]; 41.9% in series [5]; 67.98% in [6]; 77.4% in [8]; 16.9% in [9]. This molecule also returned an Activity in [11] of 83.74%. Further, the zone of inhibition at 100 µg/disc came out at 2.5 mm in [2], 3 mm in series [3] and 3 mm in series [10].
In the case of `COc1ccc(C(=O)/C=C/c2c(OC)cc(OC)c(C3=CCN(C)CC3)c2OC)cc1`, the Activity in series [1] stood at 56.97%; in series [4] it was 55.6%; in [5] it was 67.7%; in series [6], 46.11%; in series [8], 72.33%; in series [9] it was 57.9%. For the same molecule, in series [11], the Activity was found to be 80.86%. Moreover, the values for the zone of inhibition at 100 µg/disc in series [2], in series [3] and in [10] were 2.5 mm, 7 mm and 3.5 mm, respectively.
Regarding `CN(Cc1cnc2nc(N)nc(N)c2n1)c1ccc(C(=O)N[C@@H](CCC(=O)O)C(=O)O)cc1` [METHOTREXATE], the Activity in series [1] was 54.08%; in series [6], 53.85%; in series [8] it was 64.6%; in series [11], 78.66%.

The values are drawn from ChEMBL document CHEMBL3046962, “Synthesis of new olefin chalcone derivatives as antitumor, antioxidant and antimicrobial agents” (Med Chem Res, 2012).
